Results taken from patent US8580795B2, “Heterocyclic compounds as phosphodiesterase inhibitors” (Orchid Chemicals & Pharmaceuticals Limited, priority 2009, dated 2013).

Target: human PDE4B enzyme (PDE4B2) (Homo sapiens, UniProt Q07343)
Assay: Phosphodiesterase 4 screening assay (SPA, [3H]-cAMP)
Assay type: biochemical
Settings: 100 nM compound; 0.5 μM cAMP
Protocol: Phosphodiesterase 4 Screening Assay:
PDE4 (Phosphodiesterase type IV) enzymes convert cyclic AMP (cAMP) into AMP. The assay is performed to determine the effect of test compounds on the inhibition of purified human PDE4B enzyme.
The assay involves the detection of the Tritiated AMP (product) using SPA beads known as yittrium silicate. The linear AMP bind preferentially to SPA yittrium silicate beads compared to cyclic nucleotides in the presence of zinc sulphate. The binding of the radiolabelled product to the bead brings the isotope into close proximity to allow radiation from the tritium to excite the scintillant within the bead to emit light. The unbound radiolabel is not close enough to allow this energy transfer and the light emitted due to the binding of tritiated AMP is detected as cpm (counts per minute).
PDE Activity (SPA Based Assay Protocol):
PDE4B activity was inhibited by the compounds according to the invention in a modified SPA (scintillation proximity assay) test, supplied by GE Healthcare Life Sciences (see procedural instructions “Phosphodiesterase [^3H]-cAMP SPA enzyme assay, code TRKQ 7090”), carried out in 96-well microtitre plates. The test volume is 100 μL and contains 50 mM Tris buffer (pH 7.4), 8.3 mM Mg^2+, in the presence of inhibitor or test compound, and containing PDE4B2 enzyme (sufficient to ensure that 10-20% of the cAMP is converted, under the said experimental conditions). […] After a pre-incubation of 5 minutes at 37° C., the reaction is started by adding the substrate (cAMP; 0.5 μM cAMP, including about 50,000 cpm of [^3H]-cAMP) and the assays are incubated for a further 10 minutes; after that, they are stopped by adding SPA beads containing 18 mM ZnSO4 (50 μl). After the beads have been sedimented (>30 minutes), the microtitre plates are analyzed in a Microplate luminescence detection device (TopCount* NXT; PerkinElmer Life Sciences). Where, the signal in the absence of enzyme is defined as the background. 100% activity was defined as the signal detected in the presence of enzyme and DMSO with the background subtracted. The corresponding IC50 values of the compounds for the inhibition of PDE4B2 activity are determined from the concentration-effect curves by means of non-linear regression fit of the standard 4-parameter/multiple binding sites equation from a eight- to ten-point titration. (Catherine B. et al. Anal. Biochem., 1999, 275(2), pp. 148-155, David M. E. Biochem. Pharmacol., 1999, 57, pp. 965-973)

Chain of human PDE4B enzyme (PDE4B2) (Q07343 1-564 isoform Q07343-2): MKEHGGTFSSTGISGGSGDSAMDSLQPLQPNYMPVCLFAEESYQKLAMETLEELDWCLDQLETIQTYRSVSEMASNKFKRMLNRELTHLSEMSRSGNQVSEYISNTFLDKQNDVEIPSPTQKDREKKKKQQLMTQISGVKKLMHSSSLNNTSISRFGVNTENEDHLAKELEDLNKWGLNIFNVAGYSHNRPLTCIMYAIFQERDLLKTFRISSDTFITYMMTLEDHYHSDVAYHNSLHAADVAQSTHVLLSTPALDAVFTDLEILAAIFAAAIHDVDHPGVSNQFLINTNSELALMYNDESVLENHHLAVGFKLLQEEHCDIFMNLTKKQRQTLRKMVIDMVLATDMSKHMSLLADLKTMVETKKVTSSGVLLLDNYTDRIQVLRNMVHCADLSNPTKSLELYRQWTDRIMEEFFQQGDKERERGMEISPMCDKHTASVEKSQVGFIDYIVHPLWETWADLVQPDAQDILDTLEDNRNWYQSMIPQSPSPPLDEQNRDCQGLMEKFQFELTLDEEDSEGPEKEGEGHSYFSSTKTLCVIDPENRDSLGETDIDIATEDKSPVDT

Going from `COc1ccc(-c2nc(C(=O)N3CCN(c4ncccn4)CC3)cs2)c2c1oc1ccccc12` [Example 18, (2-(4-Methoxydibenzo[b,d]furan-1-yl)-1,3-thiazol-4-yl)(4-(pyrimidin-2-yl)piperazin-1-yl)methanone] to `COc1ccc(-c2nc(C(=O)Nc3ccccc3)cs2)c2c1oc1ccccc12` [Example 17, 2-(4-Methoxydibenzo[b,d]furan-1-yl)-N-phenyl-1,3-thiazole-4-carboxamide], the inhibition at 0.1 µM falls from 25.8% to 2.42%.

Going from `CS(=O)(=O)Nc1ccc2oc3c(OC(F)F)ccc(-c4nc(C(=O)O)co4)c3c2c1` [Example 49, 2-(4-(Difluoromethoxy)-8-(methylsulfonamido)dibenzo[b,d]furan-1-yl)-1,3-oxazole-4-carboxylic acid] to `CNC(=O)c1coc(-c2ccc(OC)c3oc4ccccc4c23)n1` [Example 69, 2-(4-Methoxydibenzo[b,d]furan-1-yl)-N-methyl-1,3-oxazole-4-carboxamide], the inhibition at 0.1 µM falls from 59.5% to 33.3%.

Compared with `COc1ccc(-c2nc(C(=O)NC3CC3)co2)c2c1oc1ccccc12` [Example 70, N-Cyclopropyl-2-(4-methoxydibenzo[b,d]furan-1-yl)-1,3-oxazole-4-carboxamide], `COc1ccc(-c2nc(C(=O)NC3CCC(O)CC3)c(C)o2)c2c1oc1ccccc12` (centres unmarked) [Example 60, N-(4-Hydroxycyclohexyl)-2-(4-methoxydibenzo[b,d]furan-1-yl)-5-methyl-1,3-oxazole-4-Carboxamide] is higher in inhibition at 0.1 µM: 2.34% for the first, 47.3% for the second.

Going from `COc1ccc(-c2nc(C(=O)Nc3ccc(Cl)cc3)cs2)c2c1oc1ccccc12` [Example 20, N-(4-Chlorophenyl)-2-(4-methoxydibenzo[b,d]furan-1-yl)-1,3-thiazole-4-carboxamide] to `COc1ccc(-c2nc(-c3ccc(C#N)cc3)cs2)c2c1oc1ccccc12` [Example 8, 4-(2-(4-Methoxydibenzo[b,d]furan-1-yl)-1,3-thiazol-4-yl)benzonitrile], the inhibition at 0.1 µM rises from 2.98% to 5.16%.

Compared with `COc1ccc(-c2nc3cc(C(N)=O)ccc3o2)c2c1oc1ccccc12` [Example 73, 2-(4-Methoxydibenzo[b,d]furan-1-yl)-1,3-benzo[d]oxazole-5-carboxamide], `COc1ccc(-c2nc3cc(C(=O)O)ccc3o2)c2c1oc1ccccc12` [Example 72, 2-(4-Methoxydibenzo[b,d]furan-1-yl)-1,3-benzo[d]oxazole-5-carboxylic acid] is higher in inhibition at 0.1 µM: 18.1% for the first, 22.2% for the second.

Going from `COc1ccc(-c2nc3ncccc3o2)c2c1oc1ccccc12` [Example 75, 2-(4-Methoxydibenzo[b,d]furan-1-yl)[1,3]oxazolo[4,5-b]pyridine] to `COc1ccc(-c2nc3ccccc3o2)c2c1oc1ccccc12` [Example 74, 2-(4-Methoxydibenzo[b,d]furan-1-yl)-1,3-benzo[d]oxazole], the inhibition at 0.1 µM rises from 37.2% to 54.9%.

Going from `COc1ccc(-c2nc3cc(C(=O)NC4CCCC4)ccc3o2)c2c1oc1ccccc12` [Example 76, N-Cyclopentyl-2-(4-methoxydibenzo[b,d]furan-1-yl)-1,3-benzo[d]oxazole-5-carboxamide] to `COc1ccc(-c2nc(C(N)=O)c(C)o2)c2c1oc1ccccc12` [Example 58, 2-(4-Methoxydibenzo[b,d]furan-1-yl)-5-methyl-1,3-oxazole-4-carboxamide], the inhibition at 0.1 µM rises from 48.3% to 64.1%.

First: CCNC(=O)c1nc(-c2ccc(OC)c3oc4ccccc4c23)oc1C [Example 57, N-Ethyl 2-(4-methoxydibenzo[b,d]furan-1-yl)-5-methyl-1,3-oxazole-4-carboxamide]
Second: CCOC(=O)c1sc(-c2ccc(OC)c3oc4ccccc4c23)nc1C [Example 21, Ethyl 2-(4-methoxydibenzo[b,d]furan-1-yl)-4-methyl-1,3-thiazole-5-carboxylate]
The inhibition at 0.1 µM of the first is higher: 32.5% for the first, 9.1% for the second.

Work on `CCOC(=O)c1csc(-c2ccc(OC)c3oc4ccccc4c23)n1` [Example 15, Ethyl 2-(4-methoxydibenzo[b,d]furan-1-yl)-1,3-thiazole-4-carboxylate] yielded an inhibition at 0.1 µM of 17.6%.
